In ChEMBL document CHEMBL1137226, “Structure modifications of 6-aminoquinolones with potent anti-HIV activity” (J Med Chem, 2004):
Converted amounts (≈) assume the structure as drawn. One block for each compound: values may come before it.

Experiments:
[1] = test system: MT4; test: Concentration of compound that reduces the viability of mock-infected MT-4 cells by 50%; format: functional; conditions: Homo sapiens
[2] = test system: CCRF-CEM; test: Selectivity index towards HIV-1 (IIIB) in CEM cells; format: functional, Homo sapiens
[3] = Concentration of compound that reduces the viability of mock-infected peripheral blood mononuclear cells by 50%; format: functional; conditions: Homo sapiens
[4] = test system: MT4; test: Concentration required for protection of MT-4 cells from HIV-2 (ROD) induced cytopathogenicity in MTT assay; format: functional, cell-based; conditions: Homo sapiens
[5] = Concentration of compound required for reduction of p24 production in HIV-1 (IIIB) infected peripheral blood mononuclear cells; format: functional; conditions: Homo sapiens
[6] = test system: CCRF-CEM; test: Concentration of compound required for protection of CEM cells from HIV-2 (ROD) induced cytopathogenicity; format: functional, cell-based; conditions: Homo sapiens
[7] = test system: MT4; test: Concentration required for protection of MT-4 cells from HIV-1 (IIIB) induced cytopathogenicity in MTT assay; format: functional, cell-based; conditions: Homo sapiens
[8] = test system: CCRF-CEM; test: Concentration of compound required for protection of CEM cells from HIV-1 (IIIB) induced cytopathogenicity; format: functional, cell-based; conditions: Homo sapiens
[9] = test system: MT4; test: Selectivity index towards HIV-1 (IIIB) in MT-4 cells; format: functional, Homo sapiens
[10] = test system: MT4; test: Maximum protection (%) of MT-4 cells from HIV-2 (ROD) induced cytopathogenicity; format: functional, Homo sapiens
[11] = Selectivity index towards HIV-1 (IIIB) in peripheral blood mononuclear cells; format: functional, Homo sapiens
[12] = test system: MT4; test: Selectivity index towards HIV-2 (ROD) in MT-4 cells; format: functional, Homo sapiens
[13] = test system: CCRF-CEM; test: Concentration of compound that reduces the viability of mock-infected CEM cells by 50%; format: functional; conditions: Homo sapiens
[14] = test system: CCRF-CEM; test: Selectivity index towards HIV-2 (ROD) in CEM cells; format: functional, Homo sapiens
[15] = test system: MT4; test: Maximum protection (%) of MT-4 cells from HIV-1 (IIIB) induced cytopathogenicity; value ranges from 88-115%; format: functional, Homo sapiens
[16] = test system: MT4; test: Maximum protection (%) of MT-4 cells from HIV-2 (ROD) induced cytopathogenicity; value ranges from 26-27%; format: functional, Homo sapiens
[17] = test system: MT4; test: Maximum protection (%) of MT-4 cells from HIV-1 (IIIB) induced cytopathogenicity; value ranges from 11-24%; format: functional, Homo sapiens
[18] = test system: MT4; test: Maximum protection (%) of MT-4 cells from HIV-1 (IIIB) induced cytopathogenicity; value ranges from 2-18%; format: functional, Homo sapiens
[19] = test system: MT4; test: Maximum protection (%) of MT-4 cells from HIV-1 (IIIB) induced cytopathogenicity; value ranges from 10-27%; format: functional, Homo sapiens
[20] = test system: MT4; test: Maximum protection (%) of MT-4 cells from HIV-1 (IIIB) induced cytopathogenicity; value ranges from 0-1%; format: functional, Homo sapiens
[21] = test system: MT4; test: Maximum protection (%) of MT-4 cells from HIV-1 (IIIB) induced cytopathogenicity; value ranges from 29-40%; format: functional, Homo sapiens
[22] = test system: MT4; test: Maximum protection (%) of MT-4 cells from HIV-2 (ROD) induced cytopathogenicity; value ranges from 29-63%; format: functional, Homo sapiens
[23] = test system: MT4; test: Maximum protection (%) of MT-4 cells from HIV-1 (IIIB) induced cytopathogenicity; value ranges from 32-62%; format: functional, Homo sapiens
[24] = test system: MT4; test: Maximum protection (%) of MT-4 cells from HIV-2 (ROD) induced cytopathogenicity; value ranges from 55-58%; format: functional, Homo sapiens
[25] = test system: MT4; test: Maximum protection (%) of MT-4 cells from HIV-1 (IIIB) induced cytopathogenicity; value ranges from 5-9%; format: functional, Homo sapiens
[26] = test system: MT4; test: Maximum protection (%) of MT-4 cells from HIV-2 (ROD) induced cytopathogenicity; value ranges from 22-24%; format: functional, Homo sapiens
[27] = test system: MT4; test: Maximum protection (%) of MT-4 cells from HIV-1 (IIIB) induced cytopathogenicity; value ranges from 34-37%; format: functional, Homo sapiens
[28] = test system: MT4; test: Maximum protection (%) of MT-4 cells from HIV-1 (IIIB) induced cytopathogenicity; value ranges from 16-36%; format: functional, Homo sapiens

- EC50 [5]: 1.09 µg/mL (≈ 2.31 µM)
- EC50 [6]: 0.8 µg/mL (≈ 1.69 µM)
- EC50 [8]: 0.8 µg/mL (≈ 1.69 µM)
Structure (SMILES): Nc1cc2c(=O)c(C(=O)O)cn(C3CC3)c2cc1N1CCN(c2cccc(C(F)(F)F)c2)CC1
- CC50 [1]: 3.83 µg/mL (≈ 8.11 µM)
- Selectivity index [2]: 11
- CC50 [3]: 4.63 µg/mL (≈ 9.8 µM)
- EC50 [4]: 0.38 µg/mL (≈ 0.804 µM)
- EC50 [7]: 0.27 µg/mL (≈ 0.571 µM)
- Selectivity index [9]: 14.2
- Protection [10]: 71%
- Selectivity index [11]: 4
- Selectivity index [12]: 10.1
- CC50 [13]: 9 µg/mL (≈ 19 µM)
- Selectivity index [14]: 11
- Protection [15]: <115%

Structure (SMILES): CCn1cc(C(=O)O)c(=O)c2cc(N)c(N3CCN(c4ccccn4)CC3)cc21
- CC50 [1]: 2.2 µg/mL (≈ 5.59 µM)
- EC50 [4]: > 2.2 µg/mL
- Protection [16]: <27%
- EC50 [7]: > 2.2 µg/mL
- Selectivity index [9]: <1
- Selectivity index [12]: <1
- Protection [17]: <24%

Structure (SMILES): Nc1cc2c(=O)c(C(=O)O)cn(N3CCN(c4ccccn4)CC3)c2cc1N1CCN(c2nc3ccccc3s2)CC1
- CC50 [1]: 0.24 µg/mL (≈ 0.412 µM)
- EC50 [4]: > 0.24 µg/mL
- EC50 [7]: > 0.24 µg/mL
- Selectivity index [9]: <1
- Protection [10]: 0%
- Selectivity index [12]: <1
- Protection [18]: <18%

Structure (SMILES): Cn1cc(C(=O)O)c(=O)c2cc(N)c(N3CCN(C4=Nc5ccccc5SC4)CC3)cc21
- CC50 [1]: 2.14 µg/mL (≈ 4.76 µM)
- Protection [19]: <27%
- EC50 [4]: > 2.14 µg/mL
- EC50 [7]: > 2.14 µg/mL
- Selectivity index [9]: <1
- Protection [10]: 15%
- Selectivity index [12]: <1

Structure (SMILES): Cn1cc(C(=O)O)c(=O)c2cc(N)c(N3CCN(c4nc5ccccc5[nH]4)CC3)cc21
- CC50 [1]: > 125 µg/mL
- Protection [20]: <1%
- EC50 [4]: > 125 µg/mL
- EC50 [7]: > 125 µg/mL
- Protection [10]: 0%

Structure (SMILES): Cc1nnc(N2CCN(c3cc4c(cc3N)c(=O)c(C(=O)O)cn4C)CC2)s1
- CC50 [1]: > 125 µg/mL
- Protection [21]: <40%
- EC50 [4]: ≥ 10.3 µg/mL
- EC50 [7]: > 125 µg/mL
- Selectivity index [9]: <1
- Selectivity index [12]: <=12.1
- Protection [22]: <63%

- EC50 [5]: 2.24 µg/mL (≈ 4.25 µM)
- EC50 [6]: 12 µg/mL (≈ 22.8 µM)
- EC50 [8]: 9.4 µg/mL (≈ 17.9 µM)
Structure (SMILES): Nc1cc2c(=O)c(C(=O)O)cn(N3CCN(c4ccccn4)CC3)c2cc1N1CCN(c2ccccn2)CC1
- CC50 [1]: 58.5 µg/mL (≈ 111 µM)
- Selectivity index [2]: >11
- CC50 [3]: ≥ 43.3 µg/mL
- EC50 [4]: 19.2 µg/mL (≈ 36.5 µM)
- EC50 [7]: ≥ 17.4 µg/mL
- Selectivity index [9]: <=3.4
- Selectivity index [11]: >=19
- Selectivity index [12]: 3
- CC50 [13]: > 100 µg/mL
- Selectivity index [14]: >8
- Protection [23]: <62%
- Protection [24]: <58%

Structure (SMILES): CC(=O)c1ccc(N2CCN(c3cc4c(cc3N)c(=O)c(C(=O)O)cn4C)CC2)cc1
- CC50 [1]: 0.15 µg/mL (≈ 0.357 µM)
- Protection [25]: <9%
- EC50 [4]: > 0.15 µg/mL
- EC50 [7]: > 0.15 µg/mL
- Selectivity index [9]: <1
- Protection [10]: 13%
- Selectivity index [12]: <1

Structure (SMILES): Nc1cc2c(=O)c(C(=O)O)cn(-c3ccc(F)cc3)c2cc1N1CCN(c2ccccn2)CC1
- CC50 [1]: 22 µg/mL (≈ 47.9 µM)
- Protection [26]: <24%
- EC50 [4]: > 22 µg/mL
- EC50 [7]: > 22 µg/mL
- Selectivity index [9]: <1
- Selectivity index [12]: <1
- Protection [27]: <37%

Structure (SMILES): Nc1cc2c(=O)c(C(=O)O)cn(C3CC3)c2cc1N1CCN(c2nc3ccccc3s2)CC1
- CC50 [1]: 0.07 µg/mL (≈ 0.152 µM)
- EC50 [4]: > 0.07 µg/mL
- EC50 [7]: > 0.07 µg/mL
- Protection [28]: <36%
- Selectivity index [9]: <1
- Protection [10]: 42%
- Selectivity index [12]: <1
